Results from the supplement of paper PMC10307832.

What was measured:
Assay in all cases: relative viability (nuclei count vs DMSO), 5 days (fraction); higher = more cells survive
RAF265 + Tozasertib = compound: Cn1c(Nc2ccc(C(F)(F)F)cc2)nc2cc(Oc3ccnc(-c4ncc(C(F)(F)F)[nH]4)c3)ccc21 [RAF265] + Cc1cc(Nc2cc(N3CCN(C)CC3)nc(Sc3ccc(NC(=O)C4CC4)cc3)n2)n[nH]1 [Tozasertib] (partner 0.1 µM)
How it was run: (§1)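 Lung cancer cell lines were seeded in 1536-well plates and dosed by pin tool the next day, with either a single drug or a fixed anchor-drug dose combined with five library-drug doses (not always all listed) spaced in √10 steps. Five days later, one step fixed the cells and stained their nuclei (final 0.05% Triton X-100, 1% formaldehyde, 1 ug/ml Hoechst), and nuclei were counted on 4× images. Relative viability is the nuclei count in treated wells divided by the count in vehicle wells, and each value is the median of duplicate plates.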

IPA-3 + Linsitinib = compound: C1=CC=C2C(=C1)C=CC(=C2SSC3=C(C=CC4=CC=CC=C43)O)O [IPA-3] + C[C@]1(O)C[C@@H](c2nc(-c3ccc4ccc(-c5ccccc5)nc4c3)c3c(N)nccn32)C1 [Linsitinib] (partner 1 µM)
How it was run: as §1

IPA-3 + Foretinib = compound: C1=CC=C2C(=C1)C=CC(=C2SSC3=C(C=CC4=CC=CC=C43)O)O [IPA-3] + COc1cc2c(Oc3ccc(NC(=O)C4(C(=O)Nc5ccc(F)cc5)CC4)cc3F)ccnc2cc1OCCCN1CCOCC1 [Foretinib] (partner 0.25 µM)
How it was run: as §1

RAF265 + Linsitinib = compound: Cn1c(Nc2ccc(C(F)(F)F)cc2)nc2cc(Oc3ccnc(-c4ncc(C(F)(F)F)[nH]4)c3)ccc21 [RAF265] + C[C@]1(O)C[C@@H](c2nc(-c3ccc4ccc(-c5ccccc5)nc4c3)c3c(N)nccn32)C1 [Linsitinib] (partner 1 µM)
How it was run: as §1

Row | Cell Line | relative viability (RAF265 + Tozasertib; first compound 0.01 µM) | relative viability (RAF265 + Tozasertib; first compound 0.03162 µM) | relative viability (RAF265 + Tozasertib; first compound 0.1 µM) | relative viability (RAF265 + Tozasertib; first compound 0.3162 µM) | relative viability (RAF265 + Tozasertib; first compound 1 µM) | relative viability (IPA-3 + Linsitinib; first compound 0.2 µM) | relative viability (IPA-3 + Linsitinib; first compound 0.6325 µM) | relative viability (IPA-3 + Linsitinib; first compound 2 µM) | relative viability (IPA-3 + Linsitinib; first compound 6.325 µM) | relative viability (IPA-3 + Linsitinib; first compound 20 µM) | relative viability (IPA-3 + Foretinib; first compound 0.2 µM) | relative viability (IPA-3 + Foretinib; first compound 0.6325 µM) | relative viability (IPA-3 + Foretinib; first compound 2 µM) | relative viability (IPA-3 + Foretinib; first compound 6.325 µM) | relative viability (IPA-3 + Foretinib; first compound 20 µM) | relative viability (RAF265 + Linsitinib; first compound 0.01 µM) | relative viability (RAF265 + Linsitinib; first compound 0.03162 µM) | relative viability (RAF265 + Linsitinib; first compound 0.1 µM) | relative viability (RAF265 + Linsitinib; first compound 0.3162 µM) | relative viability (RAF265 + Linsitinib; first compound 1 µM)
1 | LU99A | 0.318 | 0.285 | 0.28 | 0.291 | 0.195 | 0.563 | 0.476 | 0.553 | 0.517 | 0.547 | 0.877 | 0.734 | 0.687 | 0.763 | 0.921 | 0.471 | 0.423 | 0.323 | 0.308 | 0.273
2 | LXF-289 | 0.217 | 0.172 | 0.174 | 0.205 | 0.108 | 1.09 | 0.961 | 0.951 | 1.02 | 1.11 | 1 | 0.919 | 0.993 | 1.01 | 1.11 | 0.916 | 0.919 | 0.947 | 0.815 | 0.792
3 | NCI-H23 | 0.368 | 0.373 | 0.334 | 0.254 | 0.172 | 0.613 | 0.667 | 0.522 | 0.603 | 0.645 | 1.03 | 1.02 | 0.971 | 1 | 1.17 | 0.668 | 0.541 | 0.437 | 0.321 | 0.202
4 | NCI-H322M | 0.479 | 0.462 | 0.306 | 0.327 | 0.223 | 1.01 | 0.941 | 0.987 | 0.947 | 0.978 | 1.05 | 0.961 | 1.15 | 1.04 | 1.13 | 0.929 | 0.807 | 0.662 | 0.377 | 0.256
5 | NCI-H358 | 0.11 | 0.0915 | 0.0883 | 0.0935 | 0.0863 | 0.789 | 0.687 | 0.792 | 0.686 | 0.882 | 0.815 | 0.622 | 0.713 | 0.732 | 0.721 | 0.843 | 0.565 | 0.443 | 0.37 | 0.267
6 | NCI-H441 | 0.715 | 0.69 | 0.667 | 0.475 | 0.36 | 0.568 | 0.568 | 0.611 | 0.541 | 0.515 | 1.14 | 1.2 | 0.79 | 0.837 | 1 | 0.617 | 0.495 | 0.415 | 0.3 | 0.389
7 | NCI-H460 | 0.446 | 0.468 | 0.628 | 0.445 | 0.293 | 1.69 | 0.603 | 0.968 | 0.711 | 0.771 | 1.12 | 0.924 | 0.851 | 0.929 | 0.931 | 0.812 | 0.692 | 0.647 |  | 0.378
8 | NCI-H520 | 0.448 | 0.414 | 0.384 | 0.491 | 0.338 | 1.02 | 0.951 | 1.03 | 0.855 | 0.982 | 0.885 | 0.757 | 0.743 | 0.613 | 0.837 | 0.941 | 0.949 | 0.939 | 0.912 | 0.631
9 | NCI-H596 | 1.04 | 0.959 | 1.06 | 0.888 | 0.728 | 1.3 | 0.993 | 1.04 | 1.09 | 1.14 | 0.691 | 0.945 | 0.923 | 0.881 | 1.06 | 1.05 | 0.97 | 1.1 | 1.09 | 0.657
10 | NCI-H647 | 0.197 | 0.207 | 0.269 | 0.443 | 0.158 | 1.52 | 1.01 | 1.11 | 0.641 | 0.38 | 1.36 | 1.26 | 1.08 | 1.03 | 1.12 | 0.801 | 0.991 | 1.01 | 0.574 | 0.519
11 | NCI-H650 | 0.716 | 0.704 | 0.738 | 0.655 | 0.375 | 0.89 | 0.966 | 0.877 | 0.788 | 1.07 | 1.11 | 0.97 | 1.11 | 1.03 | 1.2 | 0.972 | 0.845 | 0.666 | 0.442 | 0.375
12 | NCI-H661 | 0.374 | 0.35 | 0.314 | 0.351 | 0.35 | 0.52 | 0.466 | 0.712 | 0.598 | 0.646 | 1.01 | 0.988 | 0.995 | 0.964 | 0.997 | 0.589 | 0.412 | 0.686 | 0.455 | 0.33
13 | NCI-H727 | 0.703 | 0.642 | 0.641 | 0.536 | 0.411 | 0.265 | 0.186 | 0.271 | 0.34 | 0.226 | 0.898 | 0.81 | 1.17 | 0.615 | 0.73 | 0.38 | 0.26 | 0.254 | 0.327 | 0.132
14 | NCI-H838 | 0.266 | 0.283 | 0.288 | 0.311 | 0.223 | 1.34 | 0.983 | 1.1 | 0.978 | 1.13 | 1.22 | 1 | 1.1 | 1.03 | 1.14 | 1.12 | 1.01 | 1.02 | 1.03 | 0.77
15 | NCI-H1355 | 0.575 | 0.515 | 0.587 | 0.47 | 0.19 | 0.942 | 0.82 | 0.786 | 0.742 | 0.895 | 1 | 0.953 | 1.02 | 0.946 | 1.08 | 0.791 | 0.67 | 0.72 | 0.458 | 0.298
16 | NCI-H1395 | 0.677 | 0.667 | 0.666 | 0.84 | 0.609 | 1.2 | 1.04 | 1.19 | 1.02 | 1.11 | 1.07 | 0.901 | 0.98 | 0.934 | 1.02 | 1.14 | 1 | 1.05 | 1.08 | 0.741
